{"source": "patent US20240067631A1", "about": "“PYRAZOLE DERIVATIVES USEFUL AS NAMPT MODULATORS” (Cytokinetics, Inc., priority 2020, published 2024)", "key": {"[1]": {"molecular_target": "endogenous NAMPT (Homo sapiens (Human), UniProt P43490)", "sequence (P43490 whole entry)": "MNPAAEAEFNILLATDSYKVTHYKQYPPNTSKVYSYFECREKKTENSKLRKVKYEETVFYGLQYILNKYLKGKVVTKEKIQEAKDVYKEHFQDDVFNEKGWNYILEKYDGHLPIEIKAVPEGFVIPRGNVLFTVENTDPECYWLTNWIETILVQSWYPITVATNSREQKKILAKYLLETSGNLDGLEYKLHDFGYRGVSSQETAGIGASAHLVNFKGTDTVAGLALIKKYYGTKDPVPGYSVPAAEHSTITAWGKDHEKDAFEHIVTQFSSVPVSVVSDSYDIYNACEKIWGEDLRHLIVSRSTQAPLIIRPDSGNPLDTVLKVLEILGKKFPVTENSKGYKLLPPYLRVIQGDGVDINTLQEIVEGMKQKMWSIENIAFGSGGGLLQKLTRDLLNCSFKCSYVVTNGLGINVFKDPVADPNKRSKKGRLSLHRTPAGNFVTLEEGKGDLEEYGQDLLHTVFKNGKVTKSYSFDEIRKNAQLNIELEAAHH", "assay": "Cellular NAD+ modulation assay in SH-SY5Y cells with doxorubicin", "format": "cell-based", "conditions": "Neuroblastoma SH-SY5Y cells, 40 hours, cellular NAD levels", "protocol": "The compounds described herein were also assayed for their ability to stimulate the endogenous NAMPT in a native cellular environment in the cellular NAD+ modulation assay, which measures the ability of the compound to modulate cellular NAD levels. Increased levels of NAD are expected by compounds that permeate the cells and activate the catalytic activity of the endogenous NAMPT.\nNeuroblastoma SH-SY5Y cells were grown in 1:1 mixture of Eagle's Minimum Essential Medium and F12 Medium, along with 10% fetal bovine serum, in a humidified incubator with an atmosphere of 95% air and 5% CO2 at 37° C. The assays were initiated by plating 20 μL of SH-SY5Y cells in culture medium with 0.1% fetal bovine serum, at a density of 5000 cells per well to a 384-well Corning™ BioCoat™ Poly-D-Lysine Multiwell Plates. The plates were incubated in the 37° C. incubators for a period of 5 hours. Compounds in DMSO were added to the plates in a volume of 120 nL using the Labcyte Echo Liquid Handlers. 5 μL of a 1.5 uM Doxorubicin solution in assay medium is added to each well. The plates are then incubated for 40 hours. 30 μL of a readout-solution containing 0.2 U/mL Diaphorase enzyme, 40 uM resazurin, 10 uM FMN, 0.8 U/mL Alcohol dehydrogenase, 3% ethanol, 0.4 mg/mL bovine serum albumin, 0.2% Triton X-100 in 100 mM Tris-HCl, 30 mM EDTA, pH 8.4. The plates were read for fluorescence (Excitation/Emission=540 nm/590 nm) using an EnVision plate reader after 60 mins of incubation at ambient temperature."}, "[2]": {"molecular_target": "human NAMPT (Homo sapiens (Human), UniProt P43490)", "sequence (P43490 whole entry)": "as above", "assay": "Human recombinant enzyme assay (NMN fluorescence biochemical assay)", "conditions": "6 nM human NAMPT, 60 min", "summary_of_the_method": "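Recombinant human NAMPT (6 nM) with 2.5 mM ATP, […] PRPP and […] nicotinamide in HEPES pH 7.2 with DTT, CHAPS, NaCl, MgCl2; 60 min at ambient temperature. NMN derivatised with acetophenone/KOH/formic acid, fluorescence read at 355/460 nm. AC1.4 (40% above basal) and EC50 reported.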"}}, "data": [{"molecule": "Cc1nc(C(=O)NC(c2cccc(F)c2)c2nccn2C)nc(NCCc2cn[nH]c2)c1C", "note": "(stereo not shown) [Compound 20, 4-((2-(1H-pyrazol-4-yl)ethyl)amino)-N-((3-fluorophenyl)(1-methyl-1H-imidazol-2-yl)methyl)-5,6-dimethylpyrimidine-2-carboxamide]", "values": [{"measurement": "SY5Y (human) NAD Cell Dox AC0.3", "setting": "[1]", "value": 2.97, "unit": "µM"}, {"measurement": "EC50", "setting": "[1]; read-out: SY5Y (human) NAD Cell Dox EC50", "value": 8.79, "unit": "µM"}, {"measurement": "AC1.4 Human", "setting": "[2]; concentration of compound that generates 40% higher activity over basal", "value": 0.062, "unit": "µM"}, {"measurement": "EC50", "setting": "[2]; concentration that gives half-maximal activation", "value": 0.848, "unit": "µM"}]}]}
